Measurements published in US4612329A, “Pharmaceutical alpha-aminoalkyl-alpha-alkylphenylacetonitriles” (Hokuriku Pharmaceutical Co., Ltd., priority 1984, dated 1986).

Legend:
[1] = tested on: aconitine-induced arrhythmias; test: Anti-arrhythmic action (aconitine-induced arrhythmias in mice); type: in vivo, male ddY mice; conditions: 100 mg/kg orally 60 min prior to aconitine infusion, percent increase of aconitine needed to induce arrhythmias
Procedure: 2. Anti-arrhythmic action (aconitine-induced arrhythmias in mice)
Male ddY mice weighing about 30 g were anesthetized with pentobarbital sodium given intraperitoneally. Aconitine (1.32 μg/min) was continuously infused into a tail vein 15 min posterior to pentobarbital sodium administration. […] The amount of aconitine needed to induce arrhythmias was calculated from the time taken to the onset of the first premature ventricular systoles. The test compounds (100 mg/kg) were orally given 60 min prior to aconitine infusion. Their relative potencies to quinidine were compared by the percent increase of aconitine needed to induce arrhythmias.

[2] = tested on: Alpha-receptor; test: Alpha-receptor blocking action (thoracic aorta, noradrenaline); design: species or system male rabbit; conditions: rabbit thoracic aorta helical strip, Krebs-Henseleit, 37° C., compound applied 30 min prior
Procedure: 3. Alpha-receptor blocking action
The thoracic aorta was excised from male rabbit and helically cut. The helical strip was mounted in a tissue bath containing Krebs-Henseleit solution maintained at 37° C. A resting tension of 2.0 g was applied to the tissue. The change in tension, which was induced by cumulative application of noradrenaline, was isometrically measured by the FD-pickup. The tissue bath solution was bubbled with a mixture of 95% O2 -5% CO2. The test compounds were applied 30 min prior to cumulative application of noradrenaline. The degree of alpha-blocking action was expressed as the pA2 value.

SMILES	Anti-arrhythmic action, relative potency (quinidine = 1) [1]	Alpha-blocking action, pA2 value [2]
COc1cc(C(C#N)(CCCNCCOc2ccccc2)C(C)C)cc(OC)c1OC.Cl (stereo not drawn) [Example 3, Alpha-isopropyl-alpha-[3-(2-phenoxyethylamino)propyl]-3,4,5-trimethoxyphenylacetonitrile Hydrochloride]	2.01	
COc1ccc(C(C#N)(CCCNCCOc2ccccc2OC)C(C)C)cc1OC.O=C(O)/C=C\C(=O)O (stereo not drawn) [Example 4, Alpha-isopropyl-alpha-[3-[N-[2-(2-methoxyphenoxy)ethyl]amino]-propyl]-3,4-dimethoxyphenylacetonitrile Maleate]		8.25
COc1ccccc1OCCCNCCC(C#N)(c1cc(OC)c(OC)c(OC)c1)C(C)C.Cl (stereo not drawn) [Example 6, Alpha-isopropyl-alpha-[2-[N-[3-(2-methoxyphenoxy)propyl]-amino]ethyl]-3,4,5-trimethoxyphenylacetonitrile Hydrochloride]	2.02	
COc1cc(C(C#N)(CCCNCCCOc2ccccc2N)C(C)C)cc(OC)c1OC (stereo not drawn) [Example 11, Alpha-isopropyl-alpha-[3-[N-[3-(2-aminophenoxy)propyl]amino]-propyl]-3,4,5-trimethoxyphenylacetonitrile]	1.51	
COc1cccc(C(C#N)(CCCNCCOc2ccccc2OC)C(C)C)c1 (stereo not drawn) [Example 19]	2.28	
COc1cccc(C(C#N)(CCCN(C)CCOc2ccccc2OC)C(C)C)c1 (stereo not drawn) [Example 20]	1.20	
COc1ccc(C(C#N)(CCCNCCOc2ccccc2OC)C(C)C)cc1 (stereo not drawn) [Example 21]		8.02
COc1cccc(C(C#N)(CCCNCCCOc2ccccc2OC)C(C)C)c1 (stereo not drawn) [Example 25]	2.34	
COc1cccc(C(C#N)(CCCN(C)CCCOc2ccccc2OC)C(C)C)c1 (stereo not drawn) [Example 26]	1.60	
COc1ccc(C(C#N)(CCCNCCCOc2ccccc2OC)C(C)C)cc1 (stereo not drawn) [Example 27]	1.43	
COc1ccc(C(C#N)(CCCNCCCOc2ccccc2OC)C(C)C)cc1OC (stereo not drawn) [Example 57]	1.52	
COc1ccc(C(C#N)(CCCN(C)CCCOc2ccccc2OC)C(C)C)cc1OC (stereo not drawn) [Example 58]	1.64	
COc1ccccc1OCCNCCCC(C#N)(c1cc(OC)c(OC)c(OC)c1)C(C)C (stereo not drawn) [Example 84, Alpha-isopropyl-alpha-[3-[N-[2-(2-methoxyphenoxy)ethyl]amino]propyl]-3,4,5-trimethoxyphenylacetonitrile]	2.52	8.42
COc1ccccc1OCCN(C)CCCC(C#N)(c1cc(OC)c(OC)c(OC)c1)C(C)C (stereo not drawn) [Example 85]	3.72	
COc1ccccc1OCCNCCCC(C)(C#N)c1cc(OC)c(OC)c(OC)c1 (stereo not drawn) [Example 88]	1.34	8.40
CCC(C#N)(CCCNCCOc1ccccc1OC)c1cc(OC)c(OC)c(OC)c1 (stereo not drawn) [Example 90, Alpha-ethyl-alpha-[3-[N-[2-(2-methoxyphenoxy)ethyl]amino]propyl]-3,4,5-trimethoxyphenylacetonitrile]		8.79
CCCC(C#N)(CCCNCCOc1ccccc1OC)c1cc(OC)c(OC)c(OC)c1 (stereo not drawn) [Example 91]		8.46
CCCCC(C#N)(CCCNCCOc1ccccc1OC)c1cc(OC)c(OC)c(OC)c1 (stereo not drawn) [Example 92]		8.57
COc1ccccc1OCCNCCCC(C#N)(CC(C)C)c1cc(OC)c(OC)c(OC)c1 (stereo not drawn) [Example 93, Alpha-isobutyl-alpha-[3-[N-[2-(2-methoxyphenoxy)ethyl]amino]propyl]-3,4,5-trimethoxyphenylacetonitrile]		8.67
COc1ccccc1OCCCNCCCC(C#N)(c1cc(OC)c(OC)c(OC)c1)C(C)C (stereo not drawn) [Example 118, Alpha-isopropyl-alpha-[3-[N-[3-(2-methoxyphenoxy)propyl]amino]propyl]-3,4,5-trimethoxyphenylacetonitrile]	2.65	
COc1ccccc1OCCCN(C)CCCC(C#N)(c1cc(OC)c(OC)c(OC)c1)C(C)C (stereo not drawn) [Example 119]	2.24	
CCCc1ccccc1OCCCNCCCC(C#N)(c1cc(OC)c(OC)c(OC)c1)C(C)C (stereo not drawn) [Example 122]	1.21	
COc1cc(C(C#N)(CCCNCCCOc2ccc(N)cc2)C(C)C)cc(OC)c1OC (stereo not drawn) [Example 126]	1.03	
COc1cc(C(C#N)(CCCNCCCOc2cccc(N)c2)C(C)C)cc(OC)c1OC (stereo not drawn) [Example 128]	2.01	
COc1ccc(CCN(C)CCCC(C#N)(c2cc(OC)c(OC)c(OC)c2)C(C)C)cc1OC (stereo not drawn) [Gallopamil, reference compound]	0.30	6.11
COc1ccc(CCN(C)CCCC(C#N)(c2ccc(OC)c(OC)c2)C(C)C)cc1OC (stereo not drawn) [Verapamil, reference compound]		6.41
CC(C)N(CCC(C(N)=O)(c1ccccc1)c1ccccn1)C(C)C (stereo not drawn) [disopyramide, reference compound]	0.97	
